{
  "source": "patent US9895409B2",
  "about": "“Remedy for gastritis and gastric ulcer” (priority 2011, dated 2018)",
  "type_in_all_cases": "in vivo, Wistar rats",
  "key": {"[1]": {"system": "gastric ulcer induced by aspirin", "assay": "Gastric ulcer index in rats with stomach damage induced by aspirin (method of Dekanski et al.)", "conditions": "oral, once every day for 5 weeks; aspirin 50 mg/kg BW; salt 0.167 g/kg BW; glibenclamide 10 mg/kg BW; n=8", "method": "In order to measure an effect on preventing stomach damage, five-week Wistar rats were purchased from Central Lab. Animal Inc., Seoul, Korea. A breeding room was set to be 20° C. of the temperature, 50 to 60% of relative humidity, and 12 hours of lighting cycle, and water and food were set to be freely taken. The test animals were accommodated for 2 weeks using a general feed prepared on the basis of AlN-93G, and then, the weights of the animals were measured to divide them into each of test groups (n=8). Since then, the test groups were a normal group (Con) injected with distilled water only, a control group (NaCl) injected with pure sodium chloride (NaCl, 0.167 g/kg BW) that was a main ingredient of salt only, and a heat-treated salt-treating group injected with heat-treated purple salt (0.167 g/kg BW), in which each of sample solutions was orally injected along with aspirin (50 mg/kg BW) once every day for 5 weeks. In addition, glibenclamide (10 mg/kg BW) solution inhibiting KATP channel dissolved in 0.01 N NaOH including 4% glucose was abdominally injected 1 hour before orally injecting aspirin (50 mg/kg BW) and heat-treated salt (0.167 g/kg BW), and performed once every day for 5 weeks. […]\nAn effect of the heat-treated purple salt obtained in Example 2 on suppressing gastric ulcer was measured."}, "[2]": {"system": "damage of gastric mucous membrane induced by aspirin", "assay": "Damage of gastric mucous membrane measured as stomach thickness in rats with stomach damage induced by aspirin", "conditions": "oral, once every day for 5 weeks; aspirin 50 mg/kg BW; salt 0.167 g/kg BW; glibenclamide 10 mg/kg BW; ocular micrometer", "method": "In order to measure an effect on preventing stomach damage, five-week Wistar rats were purchased from Central Lab. Animal Inc., Seoul, Korea. A breeding room was set to be 20° C. of the temperature, 50 to 60% of relative humidity, and 12 hours of lighting cycle, and water and food were set to be freely taken. The test animals were accommodated for 2 weeks using a general feed prepared on the basis of AlN-93G, and then, the weights of the animals were measured to divide them into each of test groups (n=8). Since then, the test groups were a normal group (Con) injected with distilled water only, a control group (NaCl) injected with pure sodium chloride (NaCl, 0.167 g/kg BW) that was a main ingredient of salt only, and a heat-treated salt-treating group injected with heat-treated purple salt (0.167 g/kg BW), in which each of sample solutions was orally injected along with aspirin (50 mg/kg BW) once every day for 5 weeks. […] A degree of the damage of gastric mucous membrane of the heat-treated purple salt obtained in Example 2 was measured by measuring a stomach thickness. […] Since then, the stomach thicknesses were measured using an ocular micrometer."}, "[3]": {"system": "stomach damage induced by aspirin", "assay": "Effect on preventing stomach damage in rats with stomach damage induced by aspirin (microscopic observation of opened stomach)", "conditions": "oral, once every day for 5 weeks; aspirin 50 mg/kg BW; salt 0.167 g/kg BW; glibenclamide 10 mg/kg BW abdominally 1 hour before", "method": "In order to measure an effect on preventing stomach damage, five-week Wistar rats were purchased from Central Lab. Animal Inc., Seoul, Korea. A breeding room was set to be 20° C. of the temperature, 50 to 60% of relative humidity, and 12 hours of lighting cycle, and water and food were set to be freely taken. The test animals were accommodated for 2 weeks using a general feed prepared on the basis of AlN-93G, and then, the weights of the animals were measured to divide them into each of test groups (n=8). Since then, the test groups were a normal group (Con) injected with distilled water only, a control group (NaCl) injected with pure sodium chloride (NaCl, 0.167 g/kg BW) that was a main ingredient of salt only, and a heat-treated salt-treating group injected with heat-treated purple salt (0.167 g/kg BW), in which each of sample solutions was orally injected along with aspirin (50 mg/kg BW) once every day for 5 weeks. In addition, glibenclamide (10 mg/kg BW) solution inhibiting KATP channel dissolved in 0.01 N NaOH including 4% glucose was abdominally injected 1 hour before orally injecting aspirin (50 mg/kg BW) and heat-treated salt (0.167 g/kg BW), and performed once every day for 5 weeks. The respective treating groups were fasted for 24 hours before sacrificing; sacrificed; and then, the stomach was removed."}},
  "data": [
    {"smiles": "CC(=O)Oc1ccccc1C(=O)O", "note": "[aspirin]", "values": [
      {"measurement": "gastric ulcer index (FIG. 3)", "setting": "[1]", "result": "37.3±10.4"},
      {"measurement": "stomach thickness (FIG. 4)", "setting": "[2]", "result": "very thin as compared with the normal group"},
      {"measurement": "stomach damage (bleeding, inflammation, mucosa) observed with optical microscope (FIG. 2)", "setting": "[3]", "result": "severe damage along with gastric hemorrhage"}
    ]}
  ]
}
